{
  "source": "patent US20250051375A1",
  "about": "“ANTI-HIV COMPOUNDS” (Gilead Sciences, Inc., priority 2023, published 2025)",
  "key": {"[1]": {"system": "HIV-1 IIIB strain", "test": "MT-4 HIV Wild Type Virus Infection Assay (IIIB Virus)", "format": "cell-based", "conditions": "Human immunodeficiency virus 1, IIIB, MT4, 120 h, MT-4 cells acutely infected with HIV-1 IIIB, 5 day incubation, Cell-titer glo", "outline": "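MT-4 cells at 2×10^6 cells/ml in RPMI/10% FBS were acutely infected with HIV-1 IIIB for 1 h at 37° C, diluted 25× and added to serially diluted compounds. After 5 days at 37° C, viability read by CellTiter-Glo luminescence; EC50 from dose-response curves.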"}, "[2]": {"biological_target": "bovine intestinal alkaline phosphatase (Bos taurus (Bovine), UniProt P19111)", "sequence (P19111 20-506)": "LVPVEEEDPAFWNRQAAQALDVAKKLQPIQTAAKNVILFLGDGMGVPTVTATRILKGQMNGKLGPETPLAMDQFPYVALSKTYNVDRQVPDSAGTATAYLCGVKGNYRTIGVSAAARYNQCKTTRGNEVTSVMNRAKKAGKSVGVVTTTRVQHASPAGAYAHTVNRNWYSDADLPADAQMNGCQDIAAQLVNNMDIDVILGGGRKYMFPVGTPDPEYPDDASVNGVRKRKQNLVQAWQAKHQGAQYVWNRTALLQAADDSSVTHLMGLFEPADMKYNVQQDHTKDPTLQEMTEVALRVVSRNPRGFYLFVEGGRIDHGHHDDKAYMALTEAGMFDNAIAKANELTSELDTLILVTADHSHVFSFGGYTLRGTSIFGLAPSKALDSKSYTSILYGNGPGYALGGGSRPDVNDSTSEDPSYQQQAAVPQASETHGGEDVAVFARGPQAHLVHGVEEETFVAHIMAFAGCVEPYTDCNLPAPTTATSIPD", "test": "BiALP: conversion by bovine intestinal alkaline phosphatase", "format": "in vitro ADME", "conditions": "2 μM substrate, 100 ng/mL iALP, Tris pH 7.8, 37° C., 60 minutes", "outline": "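Compounds at 2 μM final were incubated 60 min at 37° C in 0.1 M Tris-HCl pH 7.8 with 1 mM MgCl2 and 1 mM ZnCl2, with or without 100 ng/mL iALP (0.01 units/mL). Samples were quenched with acetonitrile/formic acid containing labetalol. Conversion was quantified by LC-MS peak area ratios against a 2 μM product standard.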"}, "[3]": {"test": "Intestinal S9 Assay (human GI S9)", "format": "in vitro ADME", "conditions": "1.0 mg/mL S9 protein", "outline": "(§1)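 Pooled dog or human intestinal S9 at 1.0 mg/mL protein in TRIS buffer pH 7.4 with ZnCl2 and MgCl2; compound at 2 μM, sampled 0–120 min and quenched. Remaining parent by LC-MS peak area ratio; half-life from first-order exponential decline fit.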"}, "[4]": {"test": "Intestinal S9 Assay (dog GI S9)", "format": "in vitro ADME", "conditions": "1.0 mg/mL S9 protein", "outline": "as §1"}, "[5]": {"test": "PBS Stability Assay", "format": "physicochemical", "conditions": "buffer, pH 7.4, 2 μM, phosphate buffered saline pH 7.4; read-out: PBS T½", "outline": "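Test compound at 2 μM final was incubated in PBS, pH 7.4, and sampled at 0, 10, 20, 30, 60 and 120 min into acetonitrile/1% formic acid quench with labetalol internal standard. Remaining compound was quantified by LC-MS peak-area ratio, and half-life came from a first-order exponential fit.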"}, "[6]": {"test": "Solubility in FaSSIF", "conditions": "23 °C, pH 6.5, fassif, thermodynamic from solid", "outline": "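Concentration measured by HPLC-UV after solid compound was dosed at 5 mg/mL into pH 6.5 fasted-state simulated intestinal fluid containing taurocholate and lecithin (4:1 molar) and vortexed.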"}},
  "data": [
    {"smiles": "COC(=O)N[C@H](C(=O)N[C@@H](Cc1ccc(C#Cc2cnc(N3CC4CCC(C3)N4C3COC3)nc2)cc1)[C@H](CN(Cc1c(F)cc(-c2ccn(C(F)F)n2)cc1F)NC(=O)[C@@H](NC(=O)OC)C(C)(C)C(F)(F)F)OC(=O)CC(C)(C)c1c(CC(=O)Nc2cccc(C(=O)O)c2)cc(C)cc1OP(=O)(O)O)C(C)(C)C(F)(F)F", "note": "[Example 14]", "values": [
      {"measurement": "EC50", "setting": "[1]", "value": 178, "unit": "nM"},
      {"measurement": "[Compound]", "setting": "[2]", "value": 2276.6, "unit": "nM"},
      {"measurement": "biALP Intermediate A or [Amprenavir] (% of total)", "setting": "[2]", "value": "2.2 % of total"},
      {"measurement": "[Intermediate A] or [Amprenavir]", "setting": "[2]; parent formed", "value": 50.3, "unit": "nM"},
      {"measurement": "Human GI S9 [Intermediate A]", "setting": "[3]; 2 μM, TRIS pH 7.4", "value": 58.5, "unit": "nM"},
      {"measurement": "Human GI S9 [Intermediate A] %", "setting": "[3]; 2 μM, TRIS pH 7.4", "value": 3.9, "unit": "%"},
      {"measurement": "half-life at 2 μM", "setting": "[3]; human, TRIS pH 7.4, read-out: Human GI S9 T½", "value": 10.1, "unit": "h"},
      {"measurement": "Dog GI S9 [Intermediate A]", "setting": "[4]; 2 μM, TRIS pH 7.4", "value": 210.8, "unit": "nM"},
      {"measurement": "Dog GI S9 [Intermediate A] %", "setting": "[4]; 2 μM, TRIS pH 7.4", "value": 13.8, "unit": "%"},
      {"measurement": "half-life at 2 μM", "setting": "[4]; dog, TRIS pH 7.4, read-out: Dog GI S9 T½", "value": 6.69, "unit": "h"},
      {"measurement": "half-life at 2 μM", "setting": "[5]", "value": 5.58, "unit": "h"},
      {"measurement": "solubility at 2 h", "setting": "[6]", "value": "< 1000", "unit": "µg/mL"}
    ]}
  ]
}
